Source: US6410563B1, “Substituted 8-arylquinoline phosphodiesterase-4 inhibitors” (Merck Frosst Canada & Co., priority 1999, dated 2002)

Assay: Formation as a metabolite in the mammalian system
Design: species or system mammal
Conditions: Example 19 is formed in vivo when Example 14 is administered
Description: For example, Example 19, (5-{(E)-2-(3-{6-[1-methyl-1-(methylsulfonyl)ethyl]-8-quinolinyl}phenyl)-1-[4-(methylslfonyl)phenyl]ehtenyl}-1,2,4-oxadiazol-3-yl)methanol; [drawing 2]
is administered. Accordingly, the present invention includes prodrugs that form PDE4 inhibitors in vivo as a metabolite after administering such prodrugs to a mammal. Further, this invention includes a method of treatment by a step of administering a prodrug to form in vivo an effective amount of a PDE4 inhibitor described by Formula I.

| SMILES | metabolite formation in vivo |
| --- | --- |
| Cc1noc(/C(=C/c2cccc(-c3cc(C(C)(C)S(C)(=O)=O)cc4cccnc34)c2)c2ccc(S(C)(=O)=O)cc2)n1 [Example 14, 6-[1-methyl-1-(methylsulfonyl)ethyl]-8-(3-{(E/Z)-2-(3-methyl-1,2,4-oxadiazol-5-yl)-2-[4-(methylsulfonyl)phenyl]ethenyl}phenyl)quinoline] | formed in vivo as a metabolite |
| CC(C)(c1cc(-c2cccc(/C=C(\c3ccc(S(C)(=O)=O)cc3)c3nc(CO)no3)c2)c2ncccc2c1)S(C)(=O)=O [Example 19, (5-{(E)-2-(3-{6-[1-methyl-1-(methylsulfonyl)ethyl]-8-quinolinyl}phenyl)-1-[4-(methylsulfonyl)phenyl]ethenyl}-1,2,4-oxadiazol-3-yl)methanol] | formed as a metabolite in the mammalian system |
